Results from ChEMBL document CHEMBL5528052, “Single Deletion Unmasks Hidden Anti-Gram-Negative Bacterial Activity of an Insect Defensin-Derived Peptide” (J Med Chem, 2024).
The source made the active and inactive calls. No cut-off for these calls is given here. Peptide text beside a SMILES is read from it.

Tests used:
[1] = Solubility of compound in guanidine hydrochloride at 1 mg/ml by RP-HPLC analysis; assay type: physicochemical
Pseudomonas aeruginosa [2] = test: Antimicrobial activity against Pseudomonas aeruginosa 11082616 assessed as lethal concentration; assay type: functional
Pseudomonas aeruginosa [3] = test: Antimicrobial activity against Pseudomonas aeruginosa O1 assessed as lethal concentration; assay type: functional
[4] = Stability of compound in PBS at pH 7 measured after 3 days; assay type: physicochemical; settings: buffer, pH 7, 72 h; time 3 day
Micrococcus luteus [5] = test: Antimicrobial activity against Micrococcus luteus in presence of NaCl; assay type: functional, organism-based
HEK293 = test: Cytotoxicity against HEK293 cells assessed as reduction in cell viability at 200 microg/ml incubated for 48 hrs by CCK-8 assay; assay type: toxicity, cell-based; settings: human, hek293, 48 h, dose 200 µg/ml
Priestia megaterium = test: Antimicrobial activity against Bacillus megaterium CGMCC 1.0459 assessed as lethal concentration; assay type: functional
Escherichia coli [6] = test: Antimicrobial activity against Escherichia coli J16c assessed as lethal concentration; assay type: functional
Staphylococcus aureus [7] = test: Antimicrobial activity against methicillin-resistant Staphylococcus aureus P1374 assessed as lethal concentration; assay type: functional
Staphylococcus aureus [8] = test: Antimicrobial activity against Staphylococcus aureus J685 assessed as lethal concentration; assay type: functional
Pseudomonas aeruginosa [9] = test: Antimicrobial activity against Pseudomonas aeruginosa 11092304 assessed as lethal concentration; assay type: functional
Escherichia coli [10] = test: Antimicrobial activity against Escherichia coli G2b assessed as lethal concentration; assay type: functional
Staphylococcus aureus [11] = test: Antimicrobial activity against penicillin-resistant Staphylococcus aureus P1383 assessed as lethal concentration; assay type: functional
Micrococcus luteus [12] = test: Antimicrobial activity against Micrococcus luteus CGMCC 1.0290 assessed as lethal concentration; assay type: functional
Streptococcus sanguinis = test: Antimicrobial activity against Streptococcus sanguinis ATCC 1.2497 assessed as lethal concentration; assay type: functional
Escherichia coli [13] = test: Antimicrobial activity against Escherichia coli J23a assessed as lethal concentration; assay type: functional
[14] = tested on: Staphylococcus epidermidis; test: Antimicrobial activity against penicillin-resistant Staphylococcus epidermidis P1389 assessed as lethal concentration; assay type: functional
Escherichia coli [15] = test: Antimicrobial activity against Escherichia coli DH5alpha assessed as lethal concentration; assay type: functional
Komagataella pastoris = test: Antifungal activity against Pichia pastoris X33 assessed as lethal concentration; assay type: functional
Pseudomonas aeruginosa [16] = test: Antimicrobial activity against Pseudomonas aeruginosa 11082603 assessed as lethal concentration; assay type: functional
Pseudomonas aeruginosa [17] = test: Antimicrobial activity against Pseudomonas aeruginosa DH assessed as lethal concentration; assay type: functional
Staphylococcus aureus [18] = test: Antimicrobial activity against methicillin-resistant Staphylococcus aureus P1386 assessed as lethal concentration; assay type: functional
Cell membrane [19] = test: Induction of cytoplasmic membrane disruption in Bacillus megaterium assessed as increase in fluorescence intensity by NPN uptake assay; assay type: cell membranes; settings: Priestia megaterium
[20] = tested on: Lysinibacillus fusiformis; test: Antimicrobial activity against Lysinibacillus fusiformis assessed as lethal concentration; assay type: functional
Streptococcus salivarius = test: Antimicrobial activity against Streptococcus salivarius ATCC 1.2498 assessed as lethal concentration; assay type: functional
Pseudomonas aeruginosa [21] = test: Antimicrobial activity against Pseudomonas aeruginosa 11092618 assessed as lethal concentration; assay type: functional
Curtobacterium luteum = test: Antimicrobial activity against Curtobacterium luteum assessed as lethal concentration; assay type: functional
Staphylococcus [22] = test: Antimicrobial activity against methicillin-resistant coagulase negative Staphylococcus P1369 at 0.25 to 1 nmol; assay type: functional, organism-based; settings: dose 0.25-1 nmol
Escherichia coli [23] = test: Antimicrobial activity against Escherichia coli J14b assessed as lethal concentration; assay type: functional
Alcaligenes faecalis = test: Antimicrobial activity against Alcaligenes faecalis CGMCC 1.1837 assessed as lethal concentration; assay type: functional
Pseudomonas aeruginosa [24] = test: Antimicrobial activity against Pseudomonas aeruginosa 374 assessed as lethal concentration; assay type: functional
Salmonella enterica [25] = test: Antimicrobial activity against Salmonella enterica ATCC 14028 assessed as lethal concentration; assay type: functional
Ralstonia solanacearum = test: Antimicrobial activity against Ralstonia solanacearum assessed as lethal concentration; assay type: functional
Streptococcus mutans [26] = test: Antimicrobial activity against Streptococcus mutans ATCC 1.2499 at 1 nmol relative to control; assay type: functional, organism-based
Erythrocyte = test: Hemolytic activity in mouse erythrocytes assessed as hemolysis at 100 uM; assay type: toxicity, cell-based
[27] = Retention time of the compound by RP-HPLC analysis; assay type: physicochemical
Pseudomonas aeruginosa [28] = test: Antimicrobial activity against Pseudomonas aeruginosa QT1 assessed as lethal concentration; assay type: functional
Salmonella enterica [29] = test: Antimicrobial activity against Salmonella enterica ATCC 14028 at 0.25 to 1 nmol; assay type: functional, organism-based; settings: dose 0.25-1 nmol
Cell membrane [30] = test: Induction of membrane disruption in Staphylococcus epidermidis incubated for 30 mins by transmission electron microscopic analysis; assay type: cell membranes
Bacillus subtilis = test: Antimicrobial activity against Bacillus subtilis CGMCC 1.2428 assessed as lethal concentration; assay type: functional
Cell membrane [31] = test: Disruption of outer membrane integrity in […] by NPN uptake assay; assay type: cell membranes
Cell membrane [32] = test: Induction of membrane disruption in Staphylococcus epidermidis incubated for 90 mins by SEM analysis; assay type: cell membranes
Staphylococcus [33] = test: Antimicrobial activity against methicillin-resistant coagulase negative Staphylococcus P1369 assessed as lethal concentration; assay type: functional
[34] = tested on: Stenotrophomonas maltophilia; test: Antimicrobial activity against Stenotrophomonas maltophilia CGMCC 1.1788 assessed as lethal concentration; assay type: functional
Streptococcus mutans [35] = test: Antimicrobial activity against Streptococcus mutans ATCC 1.2499 assessed as lethal concentration; assay type: functional
Geotrichum candidum = test: Antifungal activity against Geotrichum candidum CCTCC AY 93038 assessed as lethal concentration; assay type: functional
Pseudomonas aeruginosa [36] = test: Antimicrobial activity against Pseudomonas aeruginosa assessed as lethal concentration; assay type: functional
Escherichia coli [37] = test: Antimicrobial activity against Escherichia coli J45b assessed as lethal concentration; assay type: functional
Staphylococcus warneri = test: Antimicrobial activity against Staphylococcus warneri ATCC 1.2824 assessed as lethal concentration; assay type: functional
[38] = Solubility of compound in water at 1 nmol by RP-HPLC analysis; assay type: physicochemical; settings: buffer
Micrococcus luteus [39] = test: Antimicrobial activity against Micrococcus luteus in presence of human serum; assay type: functional, organism-based
Pseudomonas aeruginosa [40] = test: Antimicrobial activity against Pseudomonas aeruginosa FRD1 assessed as lethal concentration; assay type: functional

CC[C@H](C)[C@H](NC(=O)[C@H](CCCCN)NC(=O)[C@H](CC(N)=O)NC(=O)[C@H](CC(N)=O)NC(=O)[C@H](CS)NC(=O)[C@H](Cc1ccc(O)cc1)NC(=O)[C@H](CS)NC(=O)[C@@H](NC(=O)[C@H](C)N)[C@@H](C)O)C(=O)N[C@@H](CS)C(=O)N[C@H](C(=O)N[C@@H](CS)C(=O)N[C@@H](CCCNC(=N)N)C(=O)N[C@@H](CCCNC(=N)N)C(N)=O)C(C)C (H-ATCYCNNKICVCRR-NH2)
solubility [1]: Soluble | LD (Pseudomonas aeruginosa [2]): 35.1 µM | LD (Pseudomonas aeruginosa [3]): 21.42 µM | Stability [4]: Stable | Activity (Micrococcus luteus [5]): Active | Activity (HEK293): Non-Toxic | LD (Priestia megaterium): 1.23 µM | LD (Escherichia coli [6]): 7.86 µM | LD (Staphylococcus aureus [7]): 4.62 µM | LD (Staphylococcus aureus [8]): 7.01 µM | LD (Pseudomonas aeruginosa [9]): 43.43 µM | LD (Escherichia coli [10]): 12.9 µM | LD (Staphylococcus aureus [11]): 1.17 µM | LD (Micrococcus luteus [12]): 2.6 µM | LD (Streptococcus sanguinis): 2.58 µM | LD (Escherichia coli [13]): 7.86 µM | LD [14]: 12.79 µM | LD (Escherichia coli [15]): 21.42 µM | LD (Komagataella pastoris): 7.86 µM | LD (Pseudomonas aeruginosa [16]): 15.38 µM | LD (Pseudomonas aeruginosa [17]): 49.32 µM | LD (Staphylococcus aureus [18]): 3.46 µM | Activity (Cell membrane [19]): Active | LD [20]: 0.63 µM | LD (Streptococcus salivarius): 2.51 µM | LD (Pseudomonas aeruginosa [21]): 75.89 µM | LD (Curtobacterium luteum): 0.87 µM | Activity (Staphylococcus [22]): Active | LD (Escherichia coli [23]): 12.9 µM | LD (Alcaligenes faecalis): 10.4 µM | LD (Pseudomonas aeruginosa [24]): 35.1 µM | LD (Salmonella enterica [25]): 4.88 µM | LD (Ralstonia solanacearum): 17.5 µM | Activity (Streptococcus mutans [26]): inactive | Activity (Erythrocyte): Non-Toxic | Retention_time [27]: 14.5 min | LD (Pseudomonas aeruginosa [28]): 22.87 µM | Activity (Salmonella enterica [29]): Active | Activity (Cell membrane [30]): Active | LD (Bacillus subtilis): 2.6 µM | Activity (Cell membrane [31]): Active | Activity (Cell membrane [32]): Active | LD (Staphylococcus [33]): 0.27 µM | LD [34]: 21.72 µM | LD (Streptococcus mutans [35]): 3.22 µM | LD (Geotrichum candidum): 9.62 µM | LD (Pseudomonas aeruginosa [36]): 7.32 µM | LD (Escherichia coli [37]): 7.14 µM | LD (Staphylococcus warneri): 4.17 µM | solubility [38]: Soluble | Activity (Micrococcus luteus [39]): Active | LD (Pseudomonas aeruginosa [40]): 21.95 µM
